Tested on: ataxia symptoms in subjects with spinocerebellar ataxia (SCA)
Test: Phase IIb/III randomized, double-blind, placebo-controlled trial of BHV-4157 in SCA (BHV4157-201), 8-week randomization phase: SARA
Type: in vivo, human
Design: key to Total SARA change / Total SARA, Δ Btw Groups / Axial SARA [#1-4] change / Appendicular SARA [4-8] change / Total SARA change (LSmeans) / Gait [#1] change (LSmeans) / Axial Items [#1-4] change (LSmeans) / Appendicular [#5-8] change (LSmeans) / Change in Total SARA Score / Axial Items [1-4] change / Appendicular Items [5-8] change / ΔSARA (between groups): SARA points; total scale 0 (no ataxia) to 40 (severe)
Conditions: for Total SARA, Δ Btw Groups / ΔSARA (between groups): BHV-4157 vs placebo; for Total SARA, week 8 StdChg / Total SARA, week 8 Δ Mean: all subjects
Method: One measure for assessment of the methods of the present invention is by using the Scale for the Assessment and Rating of Ataxia (“SARA”).
The SARA was developed as a clinician-administered instrument to measure severity of symptoms in patients with SCA. While there are multiple scales available, the SARA has been tested in many patients with SCA.
The SARA scores range from 0 (no ataxia) to 40 (severe). The SARA takes approximately 15 minutes to administer. Assessed items include: • Gait (rated 0 to 8) • Stance (0 to 6) • Sitting (0 to 4) • Speech disturbance (0 to 6) • Finger chase (0 to 4) • Nose-finger test (0 to 4) • Fast alternating hand movements (0 to 4) • Heel-shin slide (0 to 4)
Once each of the 8 categories has been assessed, the total score is calculated to determine the severity of ataxia. For motor activities of the four extremities (items 5-8), assessments are performed bilaterally and the mean values are used to obtain the total score.
The purpose of this study is to compare the efficacy of BHV-4157 versus placebo on ataxia symptoms in subjects with spinocerebellar ataxia (SCA).
Study Type: Interventional Study Design: Allocation: Randomized • Intervention Model: Parallel Assignment • Masking: Quadruple (Participant, Care Provider, Investigator, Outcomes Assessor) • Primary Purpose: Treatment • Official Title: A Phase IIb/III, Randomized, Double-blind, Placebo-controlled Trial of BHV-4157 in Adult Subjects With Spinocerebellar Ataxia Primary Outcome Measures: • To measure the change in total score on the Scale for Assessment and Rating of Ataxia (SARA) [Time Frame: The change in total score from baseline to week 8.] Secondary Outcome Measures: • To assess the safety and tolerability of BHV-4157 in subjects with SCA by measuring the frequency and severity of adverse events and discontinuations of adverse events. [Time Frame: Baseline to week 8.] Measured by the frequency and severity of adverse events and discontinuations of adverse events. • To compare efficacy of BHV-4157 with placebo on patient impression of benefit via use of the PGI-C [Time Frame: Baseline to Week 8] Change in PGI-C score
The study is a Phase IIb/III, multicenter, randomized, double-blind, 2-arm placebo-controlled parallel-group study designed to assess safety, tolerability, and efficacy signals in a population of patients with Spinocerebellar Ataxia (SCA). Subjects will be randomized to receive placebo (QD) or BHV-4157 (140 mg QD), stratified by diagnosis (genotype) and baseline severity (Gait Item of the SARA of ≤4 and >4). Subjects with SCA3 genotype will be limited to comprise up to approximately 10% of the total population so that this most common type of SCA is not over-represented.
Dosing will continue for 8 weeks. Subjects will return to the clinic two weeks after discontinuing study medication for a follow-up safety visit. In addition, subjects completing the Randomization Phase will be offered 48 weeks of open-label treatment as long as the PI believes open-label treatment offers an acceptable risk-benefit profile. Subjects who agree to enter the Extension Phase will not be required to wash-out of drug or complete the follow-up safety visit, but instead should continue dosing as specified in the extension phase. Subjects entering the Extension Phase would have their first Extension Visit four weeks after the Week 8 Randomization Phase visit. If there is a delay of two weeks or more in dosing between the Randomization Phase and the Extension Phase, subjects will be required to complete an Extension Baseline Visit. Thereafter, subjects will undergo visits every fourth week through Week 12 of this phase. Then subjects will undergo visits every 12 weeks up to Week 48 of this phase.

[1] = Females Subjects in Experienced Site Group, n = 17
[2] = Females Subjects in Stable Subgroup, n = 18
[3] = NOT-STABLE subjects, n = 28, week 8
[4] = STABLE subjects, n = 34, week 8
[5] = experienced sites/raters population
[6] = experienced sites/raters population, n = 37, week 8

CN(CC(=O)Nc1nc2ccc(OC(F)(F)F)cc2s1)C(=O)CNC(=O)CN [BHV-4157, troriluzole]
Responders, ≥1 point [1]: 71% | Responders, ≥3 points [1]: 41% | Responders, ≥1 point [2]: 67% | Responders, ≥3 points [2]: 39% | Change in Total SARA Score (Females, All Subjects, n = 31, week 8): −1.08 | Change in Total SARA Score (Females, Experience of Sites, n = 20): −1.15 | Change in Total SARA Score (Females, STABLE Subgroup, n = 18): −1.33 | Responder Analysis, ≥3 points in Stable Subjects (n = 38) (Females, printed on line Experience of Sites): 35% | Responder Analysis, ≥3 points at Experienced sites (n = 33) (Females, printed on line STABLE Subgroup): 39% | Appendicular SARA [4-8] change [3]: −0.15 | Axial SARA [#1-4] change [3]: −0.46 | Total SARA change (STABLE subjects (screening-to-baseline SARA within 1 point), n = 34, 140 mg QD, baseline to week 8): −0.90 | Total SARA, Δ Btw Groups (STABLE subjects, week 8): −0.39 | Appendicular SARA [4-8] change [4]: −0.36 | Axial SARA [#1-4] change [4]: −0.27 | Responders, Response Definition ≥3 points (Total SARA) (Table 1, printed on line Total SARA STABLE, week 8): 24% | Responders, Response Definition ≥ 1 point (Total SARA) (Table 1, printed on line Total SARA UNSTABLE, week 8): 59% | Total SARA change (UNSTABLE / NOT-STABLE subjects, n = 28, 140 mg QD, week 8): −0.87 | Total SARA, Δ Btw Groups (UNSTABLE subjects, week 8): 0.62 | Total SARA, week 8 StdChg (n = 63, May-18): 0.459 | Total SARA, week 8 Δ Mean (n = 63, May-18 analysis, listed as BHV): −0.810 | Total SARA, week 8 Δ Mean (n = 63, May-18 analysis, listed as BHV5157): −0.81 | Total SARA, week 8 StdChg (n = 63, Sep-17 analysis): 0.459 | Total SARA, week 8 Δ Mean (n = 63, Sep-17 analysis): −0.810 | Responders, Response Definition ≥1 point [5]: 51.4% | Responders, Response Definition ≥3 points [5]: 21.6% | Appendicular [#5-8] change (LSmeans) [6]: −0.52 | Axial Items [#1-4] change (LSmeans) [6]: −0.47 | Gait [#1] change (LSmeans) [6]: −0.14 | Total SARA change (LSmeans) [6]: −1.37 | Responder Analysis, ≥3 points in All Subjects (n = 65) (lighter median): 33% | Change in Total SARA Score (lighter median (≤76.4 kg), all lighter subjects, n = 27, week 8): −1.38 | ΔSARA (between groups) (lighter median, EXP Sites): −1.03 | Change in Total SARA Score (lighter median, EXP Sites, n = 18): −1.64 | ΔSARA (between groups) (lighter median, Stable Subgroup): −0.83 | Change in Total SARA Score (lighter median, Stable Subgroup, n = 19): −1.18 | Appendicular Items [5-8] change (lighter median, n = 27): −0.69 | Axial Items [1-4] change (lighter median, n = 27): −0.85 | Responder Analysis, ≥3 points in Stable Subjects (n = 36) (lighter median, printed on line EXP Sites): 39% | Responder Analysis, ≥3 points at Experienced sites (n = 36) (lighter median, printed on line Stable Subgroup): 26%

— patent US12102618B2, “Use of riluzole prodrugs to treat ataxias” (Biohaven Therapeutics Ltd., priority 2017, dated 2024)
